Test results published in patent US20180099931A1 (AbbVie S.à.r.l., priority 2016, published 2018).
Read-outs that look alike come from different tables or passages of the source.

Target: T1, F508delCFTR (Homo sapiens, UniProt P13569, DEL508-508)
T1 construct: expressed in transfected cells; host or cells: CFBE41o- human lung-derived epithelial cells (CFBE4lo-F508delCFTR-HRP), doxycycline-inducible
Assay: Cell Surface Expression-Horse Radish Peroxidase (CSE-HRP) Assay;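 as to Maximum % activity (with co-corrector): co-corrector and positive control are both the same reference corrector at 2 µM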;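 as to Maximum % activity (without co-corrector): percent of the 2 µM on-plate positive control corrector response above DMSO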
Type: cell-based
Conditions: for Emax: read-out: Maximum % activity (without co-corrector)

[1] = CSE-HRP, test compound without co-corrector, read-out: EC50 (without co-corrector)
[2] = CSE-HRP, with co-corrector (2 μM of 3-[(2R,4R)-4-({[1-(2,2-difluoro-1,3-benzodioxol-5-yl)cyclopropyl]carbonyl}amino)-7-methoxy-3,4-dihydro-2H-chromen-2-yl]benzoic acid), read-out: EC50 (with co-corrector)
[3] = CSE-HRP, with co-corrector (2 μM), maximum at any tested concentration, normalized to on-plate positive control
[4] = CSE-HRP, without co-corrector, maximum at any tested concentration, normalized to on-plate positive control
[5] = test compound without co-corrector, read-out: EC50 (without co-corrector)
[6] = with co-corrector (2 μM of 3-[(2R,4R)-4-({[1-(2,2-difluoro-1,3-benzodioxol-5-yl)cyclopropyl]carbonyl}amino)-7-methoxy-3,4-dihydro-2H-chromen-2-yl]benzoic acid), read-out: EC50 (with co-corrector)
[7] = with co-corrector (2 μM), maximum at any tested concentration, normalized to on-plate positive control
[8] = without co-corrector, maximum at any tested concentration, normalized to on-plate positive control
[9] = test compound without co-corrector, maximum at any tested concentration, normalized to on-plate positive control
[10] = with co-corrector (2 μM of 3-[(2R,4R)-4-({[1-(2,2-difluoro-1,3-benzodioxol-5-yl)cyclopropyl]carbonyl}amino)-7-methoxy-3,4-dihydro-2H-chromen-2-yl]benzoic acid), maximum at any tested concentration, normalized to on-plate positive control

T1 sequence (P13569 with tags, fused parts or gaps DEL508-508): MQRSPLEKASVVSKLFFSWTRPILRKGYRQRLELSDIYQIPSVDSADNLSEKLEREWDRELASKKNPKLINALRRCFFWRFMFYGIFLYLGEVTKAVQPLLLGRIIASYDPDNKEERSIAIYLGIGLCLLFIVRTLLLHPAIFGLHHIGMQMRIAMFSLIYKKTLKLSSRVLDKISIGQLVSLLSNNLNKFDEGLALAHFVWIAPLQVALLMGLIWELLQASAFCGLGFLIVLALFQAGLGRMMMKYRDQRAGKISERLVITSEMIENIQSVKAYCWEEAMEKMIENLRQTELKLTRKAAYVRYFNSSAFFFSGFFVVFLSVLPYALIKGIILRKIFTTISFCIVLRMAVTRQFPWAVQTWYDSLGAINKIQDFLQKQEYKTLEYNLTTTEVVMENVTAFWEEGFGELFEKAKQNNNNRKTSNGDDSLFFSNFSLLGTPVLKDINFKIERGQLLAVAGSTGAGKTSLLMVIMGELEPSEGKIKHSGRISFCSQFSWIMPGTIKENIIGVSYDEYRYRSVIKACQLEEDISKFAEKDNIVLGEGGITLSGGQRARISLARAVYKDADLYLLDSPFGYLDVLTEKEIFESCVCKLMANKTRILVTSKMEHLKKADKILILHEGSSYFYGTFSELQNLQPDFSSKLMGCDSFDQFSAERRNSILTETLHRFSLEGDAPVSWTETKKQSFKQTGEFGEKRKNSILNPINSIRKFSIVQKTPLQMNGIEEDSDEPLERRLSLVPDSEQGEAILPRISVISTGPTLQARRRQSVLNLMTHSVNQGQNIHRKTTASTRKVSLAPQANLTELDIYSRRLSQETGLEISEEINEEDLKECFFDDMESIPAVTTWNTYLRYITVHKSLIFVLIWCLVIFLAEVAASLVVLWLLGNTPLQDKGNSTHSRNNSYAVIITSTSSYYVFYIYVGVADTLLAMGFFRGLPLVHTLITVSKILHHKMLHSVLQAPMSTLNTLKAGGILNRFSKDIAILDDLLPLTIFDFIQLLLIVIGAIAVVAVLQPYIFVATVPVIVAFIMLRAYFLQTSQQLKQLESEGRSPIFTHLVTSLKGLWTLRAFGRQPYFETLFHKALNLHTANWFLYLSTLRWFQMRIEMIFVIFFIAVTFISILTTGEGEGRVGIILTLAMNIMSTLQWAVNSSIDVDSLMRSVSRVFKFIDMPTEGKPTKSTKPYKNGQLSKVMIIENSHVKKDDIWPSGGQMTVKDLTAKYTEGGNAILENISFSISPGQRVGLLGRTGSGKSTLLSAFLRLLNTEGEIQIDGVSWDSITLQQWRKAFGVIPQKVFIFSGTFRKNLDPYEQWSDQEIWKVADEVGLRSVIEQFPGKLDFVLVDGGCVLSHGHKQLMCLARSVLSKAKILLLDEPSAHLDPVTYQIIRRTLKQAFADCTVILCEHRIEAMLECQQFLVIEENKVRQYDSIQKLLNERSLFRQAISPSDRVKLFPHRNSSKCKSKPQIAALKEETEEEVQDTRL

| SMILES | EC50 [1] [nM] | EC50 [2] [nM] | Maximum % activity (with co-corrector) [3] | Emax [4] [%] | EC50 [5] [nM] | EC50 [6] [nM] | Maximum % activity (with co-corrector) [7] | Emax [8] [%] | Emax [9] [%] | Maximum % activity (with co-corrector) [10] | Maximum % activity (without co-corrector) [9] |
| --- | --- | --- | --- | --- | --- | --- | --- | --- | --- | --- | --- |
| COc1ccc(C(C)(C)C)cc1CN[C@H]1[C@H](C(C)(C)C)[C@@H](C(=O)O)N(C(=O)CC2CCCO2)[C@H]1c1ccccc1 (stereo partly shown) [II-235] | 1000 to 10000 | 1000 to 10000 | +++ (≥350) | > 200 |  |  |  |  |  |  |  |
| COc1cccc([C@@H]2[C@H](NCc3cc(C(F)(F)F)ccc3OC)[C@@H](C(C)(C)C)[C@H](C(=O)O)N2C(=O)C2CCCCO2)n1 (mixture of isomers) [Example I-23] |  |  |  |  | 1000 to 10000 | 1000 to 10000 | +++ (≥350) | < 100 |  |  |  |
| COc1ccc(C(C)(C)C)cc1CN[C@H]1[C@H](C(C)(C)C)[C@@H](C(=O)O)N(C(=O)[C@@H]2CCCCO2)[C@H]1c1ccccc1OC(F)F [Example 59, (2S,3S,4S,5S)-3-tert-butyl-4-{[(5-tert-butyl-2-methoxyphenyl)methyl]amino}-5-[2-(difluoromethoxy)phenyl]-1-[(2S)-oxane-2-carbonyl]pyrrolidine-2-carboxylic acid] |  |  |  |  | 1000 to 10000 | < 1000 | +++ (≥350) | > 200 |  |  |  |
| CC(C)(C)[C@H]1[C@H](NCc2coc3ccccc23)[C@H](c2ccccc2)N(C(=O)C2CCCCC2)[C@@H]1C(=O)O [II-100] | 1000 to 10000 | 1000 to 10000 | ++ (≥150 and <350) | < 100 |  |  |  |  |  |  |  |
| COc1cc(Cl)ccc1CN[C@H]1[C@H](C(C)(C)C)[C@@H](C(=O)O)N(C(=O)C2CCCCC2)[C@H]1c1cccnc1C [II-96] | 1000 to 10000 | 1000 to 10000 | +++ (≥350) | 100 to 200 |  |  |  |  |  |  |  |
| Cc1cc(C(F)(F)F)cc(N[C@@H]2[C@@H](C)[C@H](C(=O)O)N(C(=O)N(C(C)C)C(C)C)[C@@H]2c2ccccc2)n1 [II-11] | 1000 to 10000 | 1000 to 10000 | +++ (≥350) | < 100 |  |  |  |  |  |  |  |
| COc1ccc(C2CC3CCC2C3)cc1CN[C@H]1[C@H](C(C)(C)OC)[C@@H](C(=O)O)N(C(=O)C2CCCCC2)[C@H]1c1ccccc1 (stereo partly shown) [Example I-117] |  |  |  |  | 1000 to 10000 | < 1000 | +++ (≥350) | > 200 |  |  |  |
| COc1ccc(C(C)(C)C)cc1CN[C@H]1[C@H](C(C)(C)C)[C@@H](C(=O)O)N(C(=O)c2ccc(OC3CCOCC3)cc2)[C@H]1c1cccnc1N(C)C [II-465] |  |  |  |  | 1000 to 10000 | < 1000 |  |  | > 200 | +++ (≥350) |  |
| CCOc1ccc(CN[C@H]2[C@H](C(C)(C)C)[C@@H](C(=O)O)N(C(=O)C3CCCCC3)[C@H]2c2ccccc2)c(C)c1 [II-119] | 1000 to 10000 | 1000 to 10000 | ++ (≥150 and <350) | < 100 |  |  |  |  |  |  |  |
| COc1ccc(C(C)(C)C)cc1CN[C@H]1[C@H](C(C)(C)C)[C@@H](C(=O)O)N(C(=O)C2OCCc3ccccc32)[C@H]1c1ccccc1 (stereo partly shown) [II-165] | 1000 to 10000 | < 1000 | +++ (≥350) | > 200 |  |  |  |  |  |  |  |
| COc1cc(C(F)(F)F)ccc1CN[C@H]1[C@H](C(C)(C)C)[C@@H](C(=O)O)N(C(=O)c2ccccc2)[C@H]1c1ccccc1 [II-152] | 1000 to 10000 | 1000 to 10000 | +++ (≥350) | < 100 |  |  |  |  |  |  |  |
| COc1ccc(C(F)(F)F)cc1CN[C@@H]1[C@@H](C(C)(C)C)[C@H](C(=O)O)N(C(=O)C2COCCO2)[C@@H]1c1ccccc1 (mixture of isomers) [II-85] | 1000 to 10000 | 1000 to 10000 | ++ (≥150 and <350) | < 100 |  |  |  |  |  |  |  |
| COc1ccc(C(C)(C)C)cc1CN[C@H]1[C@H](C(C)(C)C)[C@@H](C(=O)O)N(C(=O)C2CCCCC2)[C@H]1c1ccccc1OC [II-140] | 1000 to 10000 | < 1000 | +++ (≥350) | 100 to 200 |  |  |  |  |  |  |  |
| CC(C)c1ccccc1CN[C@H]1[C@H](C(C)(C)C)[C@@H](C(=O)O)N(C(=O)C2CCCCC2)[C@H]1c1ccccc1 [II-166] | < 1000 | < 1000 | +++ (≥350) | 100 to 200 |  |  |  |  |  |  |  |
| CC(C)c1ccccc1[C@H]1[C@@H](NCc2cccc3c2OC(C)(C)C3)[C@H](C(C)(C)C)[C@@H](C(=O)O)N1C(=O)[C@@H]1CCCO1 [Example I-305] | 1000 to 10000 | 1000 to 10000 | +++ (≥350) | 100 to 200 |  |  |  |  |  |  |  |
| COc1ccc(OC(F)(F)F)cc1CN[C@H]1[C@H](C(C)(C)C)[C@@H](C(=O)O)N(C(=O)C2CCCCC2)[C@H]1c1ccccc1 [II-190] | 1000 to 10000 | < 1000 | +++ (≥350) | > 200 |  |  |  |  |  |  |  |
| COc1ccc(C(C)(C)C)cc1CN[C@H]1[C@H](C(C)(C)C)[C@@H](C(=O)O)N(C(=O)C2Cc3ccccc3CO2)[C@H]1c1cccnc1N(C)C (single isomer, unassigned) [II-481] |  |  |  |  | 1000 to 10000 | 1000 to 10000 |  |  |  | +++ (≥350) | ++ (≥100 and <200) |
| COc1ccc(C(C)(C)C)cc1CN[C@@H]1[C@@H](C(C)(C)C)[C@H](C(=O)NS(C)(=O)=O)N(C(=O)C2CCCCC2)[C@@H]1c1ccccc1 [Example I-203] |  |  |  |  | 1000 to 10000 | 1000 to 10000 | ++ (≥150 and <350) | < 100 |  |  |  |
| COc1ncc(C2CC3CCC2C3)cc1CN[C@H]1[C@H](C(C)(C)OC)[C@@H](C(=O)O)N(C(=O)C2CCCCC2)[C@H]1c1ccccc1 (stereo partly shown) [II-251] | < 1000 | < 1000 | +++ (≥350) | 100 to 200 |  |  |  |  |  |  |  |
| COc1ccc(C(C)(C)C)cc1CN[C@@H]1[C@@H](C(C)(C)C)[C@H](C(=O)O)N(C(=O)C2CCCCC2)[C@H]1c1ccccc1 [Example I-173] |  |  |  |  | 1000 to 10000 | 1000 to 10000 | ++ (≥150 and <350) | < 100 |  |  |  |
| COc1ccc(C(F)(F)F)cc1CN[C@H]1[C@H](C(C)(C)OC)[C@@H](C(=O)O)N(C(=O)OC(C)C)[C@H]1c1ccccc1 [Example I-174] |  |  |  |  | 1000 to 10000 | 1000 to 10000 | +++ (≥350) | > 200 |  |  |  |

Further lines, results first:

| EC50 [1] [nM] | EC50 [2] [nM] | Maximum % activity (with co-corrector) [3] | Emax [4] [%] | EC50 [5] [nM] | EC50 [6] [nM] | Maximum % activity (with co-corrector) [7] | Emax [8] [%] | Emax [9] [%] | Maximum % activity (with co-corrector) [10] | Maximum % activity (without co-corrector) [9] | SMILES |
| --- | --- | --- | --- | --- | --- | --- | --- | --- | --- | --- | --- |
|  |  |  |  | 1000 to 10000 | 1000 to 10000 |  |  | 100 to 200 | +++ (≥350) |  | COc1ccc(C(F)(F)F)cc1CN[C@@H]1[C@@H](C(C)(C)C)[C@H](C(=O)O)N(C(=O)C2CCCCC2)[C@@H]1c1cccnc1N(C)C (racemic) [III-41] |
|  |  |  |  | 1000 to 10000 | 1000 to 10000 | +++ (≥350) |  | 100 to 200 |  |  | COc1ccc(C23CC(C2)C3)cc1CN[C@H]1[C@H](C(C)(C)C)[C@@H](C(=O)O)N(C(=O)OC(C)C)[C@H]1c1cccnc1OC(F)F [III-218] |
|  |  |  |  | > 10000 | 1000 to 10000 | + (<150) |  | < 100 |  |  | CC(C)(C)NC(=O)c1ccc(N[C@H]2[C@H](C(C)(C)C)[C@@H](C(=O)O)N(C(=O)C3CCCCC3)[C@H]2c2ccccc2)nc1 [III-155] |
|  |  |  |  | 1000 to 10000 | 1000 to 10000 | ++ (≥150 and <350) |  | < 100 |  |  | COc1ccc(C(F)(F)F)cc1CN[C@H]1[C@H](C(C)(C)C)[C@@H](C(=O)O)N(C(=O)C2(S(C)(=O)=O)CC2)[C@H]1c1ccccc1 [III-137] |
|  |  |  |  | 1000 to 10000 | 1000 to 10000 |  |  | > 200 | +++ (≥350) |  | COc1ccc(C(F)(F)F)cc1CN[C@@H]1[C@@H](C(C)(C)C)[C@H](C(=O)O)N(C(=O)C2C3COCC32)[C@@H]1c1ccccc1N(C)C (mixture of isomers) [III-71] |
|  |  |  |  | 1000 to 10000 | 1000 to 10000 | ++ (≥150 and <350) |  | < 100 |  |  | COc1ncc(C(F)(F)F)cc1CN[C@@H]1[C@@H](C(C)(C)C)[C@H](C(=O)O)N(C(=O)[C@@H]2CCCCO2)[C@@H]1c1ccccc1 [III-165] |
|  |  |  |  | > 10000 | > 10000 |  |  | < 100 | + (<150) |  | CC(C)(C)[C@@H]1[C@@H](Nc2cc(C(F)(F)F)cc(=O)[nH]2)[C@@H](c2ccccc2)N(C(=O)C2CCCCC2)[C@H]1C(=O)O (racemic) [III-23] |
|  |  |  |  | > 10000 | > 10000 | + (<150) |  | < 100 |  |  | CC(C)(C)[C@H]1[C@H](Nc2nc(Nc3ccccc3)ccc2C#N)[C@H](c2ccccc2)N(C(=O)C2CCCCC2)[C@@H]1C(=O)O [III-150] |
|  |  |  |  | 1000 to 10000 | 1000 to 10000 |  |  | > 200 | +++ (≥350) |  | COc1ccc(Cl)cc1CN[C@@H]1[C@@H](C(C)(C)C)[C@H](C(=O)O)N(C(=O)C2CCCCC2)[C@@H]1c1ccccc1 (racemic) [III-27] |
|  |  |  |  | 1000 to 10000 | 1000 to 10000 | ++ (≥150 and <350) |  | < 100 |  |  | COc1cc(C(F)(F)F)ccc1CN[C@H]1[C@H](C(C)(C)C)[C@@H](C(=O)O)N(C(=O)c2cccnc2)[C@H]1c1ccccc1 [III-163] |
